Here are results for five molecules from patent US20240409585A1, “MACROCYCLIC IMMUNOMODULATORS” (priority 2021, published 2024).

Structures are written as SMILES. Bridge positions count the residues as written; N and C are the ends. Square brackets hold non-standard residues; d marks the D form. Peptide text beside a SMILES is read from it. * marks the point of attachment. Tyr(3-NO2) = N[C@@H](Cc1ccc(O)c([N+](=O)[O-])c1)C(=O)O; Phe(4-COOH) = N[C@@H](Cc1ccc(C(=O)O)cc1)C(=O)O; Bip = N[C@@H](Cc1ccc(-c2ccccc2)cc1)C(=O)O; Phe(3-Me) = Cc1cccc(C[C@H](N)C(=O)O)c1; Phe(4-F) = N[C@@H](Cc1ccc(F)cc1)C(=O)O; Val(3-OH) = CC(C)(O)[C@H](N)C(=O)O; 3Pal = N[C@@H](Cc1cccnc1)C(=O)O; 4Pal = N[C@@H](Cc1ccncc1)C(=O)O; Cha = N[C@@H](CC1CCCCC1)C(=O)O; Cit = NC(=O)NCCC[C@H](N)C(=O)O; Carboxymethyl = O=C(O)C*; NMeA = CN[C@@H](C)C(=O)O; Pra = C#CC[C@H](N)C(=O)O; Dab = NCC[C@H](N)C(=O)O

This experiment deals with T1, PE-labeled human PD-L1-Ig binding to Jurkat cell line over-expressing human PD-1 (Jurkat-PD-1) (Homo sapiens, UniProt Q15116).
T1 construct: expressed in transfected cells; host or cells: Jurkat
T1 sequence (Q15116 25-288): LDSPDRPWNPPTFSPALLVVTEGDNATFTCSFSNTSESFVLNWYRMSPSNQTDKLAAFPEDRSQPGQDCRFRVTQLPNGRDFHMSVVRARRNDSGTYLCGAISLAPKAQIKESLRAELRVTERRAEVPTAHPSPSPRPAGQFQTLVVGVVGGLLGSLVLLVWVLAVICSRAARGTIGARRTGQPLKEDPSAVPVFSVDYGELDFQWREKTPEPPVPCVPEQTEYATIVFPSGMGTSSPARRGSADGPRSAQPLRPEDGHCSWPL
Briefly: Jurkat-PD-1 Cell Binding High-Content Screening Assay (CBA): Method 1. As to conditions: Jurkat-hPD-1 cells, PE-labeled PD-L1-Ig 20 nM final; read-out: Jurkat HPDL1 PD1 IC50 (uM) (Method 1).
Regarding `Cc1cccc(C[C@@H]2NC(=O)[C@H](CC(=O)O)NC(=O)[C@H](Cc3ccc(OCC(=O)O)cc3)NC(=O)[C@H](Cc3ccc(F)cc3)NC(=O)CSC[C@@H](C(=O)N[C@@H](CCN)C(N)=O)NC(=O)[C@H](CCC(=O)O)NC(=O)[C@H](C(C)(C)O)NC(=O)[C@H](CC3CCCCC3)NC(=O)[C@H](CCN)NC(=O)[C@@H](CC(C)C)NC(=O)[C@H](C)N(C)C(=O)[C@H](Cc3ccc(OCC(=O)O)cc3)NC(=O)[C@H](Cc3ccc(-c4ccccc4)cc3)NC(=O)[C@H](Cc3ccc(OCC(=O)O)cc3)NC2=O)c1` [Compound 2200] ({CH2CO}-[Phe(4-F)]Y(Carboxymethyl)D[Phe(3-Me)]Y(Carboxymethyl)[Bip]Y(Carboxymethyl)[NMeA][dL][Dab][Cha][Val(3-OH)]EC[Dab]-NH2; thioether N-14), the IC50 – broadly, the concentration that inhibits the measured activity by half – worked out at 0.01 µM.

In the case of `CC(C)C[C@@H]1NC(=O)[C@H](CCN)NC(=O)[C@@H](CC(C)C)NC(=O)[C@H](C)N(C)C(=O)[C@H](CCCNC(N)=O)NC(=O)[C@H](Cc2ccc(-c3ccccc3)cc2)NC(=O)[C@H](C(C)C)NC(=O)[C@H](Cc2c[nH]c3ccccc23)NC(=O)[C@H](CC(=O)O)NC(=O)[C@H](Cc2ccc(O)c([N+](=O)[O-])c2)NC(=O)[C@H](Cc2ccncc2)NC(=O)CSC[C@@H](C(=O)N[C@@H](C)C(N)=O)NC(=O)[C@H]([C@@H](C)O)NC(=O)[C@H](C(C)C)NC1=O` [Compound 1336] ({CH2CO}-[4Pal][Tyr(3-NO2)]DWV[Bip][Cit][NMeA][dL][Dab]LVTCA-NH2; thioether N-14), the IC50 was 0.01 µM. As to `CC(C)C[C@@H]1NC(=O)[C@H](Cc2c[nH]c3ccccc23)NC(=O)[C@H](CC(=O)O)NC(=O)[C@H](Cc2ccc(O)cc2)NC(=O)[C@H](Cc2cccnc2)NC(=O)CSC[C@@H](C(=O)N[C@@H](C)C(N)=O)NC(=O)[C@H](CO)NC(=O)[C@H](C(C)C)NC(=O)[C@H](CC(C)C)NC(=O)[C@H](CC(N)=O)NC(=O)[C@@H](C)NC(=O)[C@H](C)N(C)C(=O)[C@H](C(C)C)NC(=O)[C@H](Cc2ccc(-c3ccccc3)cc2)NC1=O` [Compound 1741] ({CH2CO}-[3Pal]YDWL[Bip]V[NMeA][dA]NLVSCA-NH2; thioether N-14), the half-inhibitory concentration (IC50) was determined as 0.02 µM. With `CC(C)C[C@H]1NC(=O)[C@H](C)N(C)C(=O)[C@H](C(C)C)NC(=O)[C@H](Cc2ccc(-c3ccccc3)cc2)NC(=O)[C@H](C(C)C)NC(=O)[C@H](Cc2c[nH]c3ccccc23)NC(=O)[C@H](CC(=O)O)NC(=O)[C@H](Cc2ccc(O)cc2)NC(=O)[C@H](Cc2ccc(OCC(=O)O)cc2)NC(=O)CSC[C@@H](C(=O)N[C@@H](C)C(N)=O)NC(=O)[C@H]([C@@H](C)O)NC(=O)[C@H](C(C)C)NC(=O)[C@H](CC2CCCCC2)NC(=O)[C@H](CCN)NC1=O` [Compound 1507] ({CH2CO}-Y(Carboxymethyl)YDWV[Bip]V[NMeA][dL][Dab][Cha]VTCA-NH2; thioether N-14) the figure was 0.01 µM; with `C#CC[C@H](NC(=O)CNC(=O)[C@@H]1CSCC(=O)N[C@@H](Cc2ccc(OCC(=O)O)cc2)C(=O)N[C@@H](Cc2ccc(C(=O)O)cc2)C(=O)N[C@@H](CC(=O)O)C(=O)N[C@@H](Cc2c[nH]c3ccccc23)C(=O)N[C@@H](CC(C)C)C(=O)N[C@@H](Cc2ccc(-c3ccccc3)cc2)C(=O)N[C@@H](C(C)C)C(=O)N(C)[C@@H](C)C(=O)N[C@H](CC(C)C)C(=O)N[C@@H](CCN)C(=O)N[C@@H](CC2CCCCC2)C(=O)N[C@@H](C(C)C)C(=O)N[C@@H](CO)C(=O)N1)C(N)=O` [Compound 1932] ({CH2CO}-Y(Carboxymethyl)[Phe(4-COOH)]DWL[Bip]V[NMeA][dL][Dab][Cha]VSCG[Pra]-NH2; thioether N-14), 0.02 µM.
